# Earlier results in patent US8222270B2 (Medicis Pharmaceutical Corporation, priority 2008, dated 2012).
# Tested on: actinic keratoses
# Details: cited from earlier work
structure (smiles),measurement,setting,value
"O=c1[nH]cc(F)c(=O)[nH]1 [Formulation 5-FU, 5-fluorouracil]","Sustained clearance of the total treatment field, patients",12-month follow-up,33%
same,Sustained clearance rate of initially cleared individual lesions,12-month follow-up,54%
same,Histological clearance rate,in vivo,67%
same,"Initial clinical clearance, patients",in vivo,96%
